SMILES strings stand for the structures.

The target of one series is human mGluR5 (Homo sapiens, UniProt P41594). To be noted: read-out: human mGluR5 IC50.
For series [1] the following is noted: intravenous administration to rhesus monkeys; literature; cited from earlier work.

Chain of human mGluR5 (P41594 21-1212): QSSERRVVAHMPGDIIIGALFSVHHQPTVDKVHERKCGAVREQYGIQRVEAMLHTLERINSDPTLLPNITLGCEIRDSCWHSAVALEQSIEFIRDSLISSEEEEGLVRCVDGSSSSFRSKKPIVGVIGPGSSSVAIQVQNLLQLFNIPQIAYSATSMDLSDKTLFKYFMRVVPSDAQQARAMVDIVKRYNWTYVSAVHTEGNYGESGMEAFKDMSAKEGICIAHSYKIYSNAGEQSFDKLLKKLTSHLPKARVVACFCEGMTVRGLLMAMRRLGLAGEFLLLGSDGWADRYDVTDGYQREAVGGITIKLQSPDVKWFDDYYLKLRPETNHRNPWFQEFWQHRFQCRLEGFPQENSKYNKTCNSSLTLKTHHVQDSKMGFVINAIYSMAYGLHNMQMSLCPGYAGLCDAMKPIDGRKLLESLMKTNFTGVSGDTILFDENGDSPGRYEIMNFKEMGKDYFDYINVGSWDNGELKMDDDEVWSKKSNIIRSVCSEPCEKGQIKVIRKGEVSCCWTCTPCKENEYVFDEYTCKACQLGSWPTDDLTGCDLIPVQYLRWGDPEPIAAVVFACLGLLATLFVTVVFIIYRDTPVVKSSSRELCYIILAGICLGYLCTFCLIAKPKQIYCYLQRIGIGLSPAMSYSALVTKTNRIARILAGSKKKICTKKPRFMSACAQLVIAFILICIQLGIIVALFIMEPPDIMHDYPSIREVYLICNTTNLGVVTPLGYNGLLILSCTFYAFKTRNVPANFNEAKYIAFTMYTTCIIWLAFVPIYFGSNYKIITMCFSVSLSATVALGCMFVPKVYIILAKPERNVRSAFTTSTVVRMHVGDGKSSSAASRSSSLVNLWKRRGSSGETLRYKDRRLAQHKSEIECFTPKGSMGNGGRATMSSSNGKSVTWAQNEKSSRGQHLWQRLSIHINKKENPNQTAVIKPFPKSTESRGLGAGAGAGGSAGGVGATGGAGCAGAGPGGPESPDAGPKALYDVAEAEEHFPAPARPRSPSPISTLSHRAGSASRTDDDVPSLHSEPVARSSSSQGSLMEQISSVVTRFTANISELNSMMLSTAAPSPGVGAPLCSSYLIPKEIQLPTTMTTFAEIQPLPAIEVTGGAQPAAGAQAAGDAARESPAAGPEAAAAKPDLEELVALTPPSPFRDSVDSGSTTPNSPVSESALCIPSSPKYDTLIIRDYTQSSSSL
Description for human mGluR5: The cells were loaded with a Ca2+-sensitive fluorescent dye (e.g., Fluo-4), and the plates were washed and placed in the FDSS instrument. Test compound was applied to cells 3 seconds after baseline readings were taken. Cells were incubated with the test compounds for 140 seconds and then stimulated with an EC20 concentration of an mGluR5 agonist (e.g., glutamate, 3,5-dihydroxyphenylglycine, or quisqualate); 60-80 seconds later an EC80 concentration of agonist was added and readings taken for an additional 40 seconds. Data were collected at 1 Hz. […] Concentration response curves were generated using a four parameter logistical equation.
The above described assay was operated in two modes. In the first mode (utilizing a triple add protocol), a range of concentrations of the present compounds were added to cells, followed by two single fixed concentrations of agonist (EC20 followed by EC80). If a compound acted as a potentiator, an EC50 value for potentiation of the EC20 response and a maximum extent of potentiation by the compound at this concentration of agonist was determined by non-linear curve fitting. If a compound acted as an antagonist, an IC50 value for antagonism of the EC80 response and a maximum extent of antagonism by the compound at this concentration of agonist was determined by non-linear curve fitting. In the second mode (utilizing a double add protocol), several fixed concentrations of the present compounds were added to various wells on a plate, followed by a range of concentrations of agonist for each concentration of present compound; the EC50 values for the agonist at each concentration of compound were determined by nonlinear curve fitting. A decrease in the EC50 value of the agonist with increasing concentrations of the present compounds (a leftward shift of the agonist concentration-response curve) is an indication of the degree of mGluR5 positive allosteric modulation at a given concentration of the present compound. An increase in the EC50 value of the agonist with increasing concentrations of the present compounds (a rightward shift of the agonist concentration response curve) is an indication of the degree of mGluR5 antagonism at a given concentration of the present compound. The second mode also indicates whether the present compounds also affect the maximum response to mGluR5 to agonists.
The mGluR5 activity was determined using the metabotropic glutamate receptor activity assays in human embryonic kidney cells as described herein. The mGluR5 activity data for some compounds are shown as the average of at least three experiments with the standard error in these cases. If no error is indicated for the mGluR5 activity, the values given represent the results from a single experiment or the average of two experiments.

As to `Cc1cccc(NC(=O)c2cc(N(C)c3cncnc3)ccn2)n1`, the IC50 at human mGluR5 worked out at 2150 nM. On the same count and under the same terms, as for `O=C(Nc1ccc(F)cn1)c1cc(Oc2cncnc2)ccn1`, the figure is 364 nM; as for `O=C(Nc1cccc(Cl)n1)c1cc(Oc2cncnc2)ccn1`, 245 nM; as for `O=C(Nc1cc(F)ccn1)c1cc(Oc2cncnc2)ccn1`, 201 nM. On the same count and under the same terms, the same measure for `O=C(Nc1cccc(F)n1)c1cc(Oc2cncnc2)ccn1`: 161 nM; for `Cc1nc(NC(=O)c2cc(Oc3cncnc3)ccn2)sc1F`: 943 nM. In the case of `Cc1nc(C#Cc2cccnc2)cs1` [MTEP, 3-[(2-methyl-1,3-thiazol-4-yl)ethynyl]pyridine], in series [1], the clearance result is reported as “efficiently cleared”. Consider `Cc1csc(NC(=O)c2cc(Oc3cccnc3)ccn2)n1` [N-(4-methylthiazol-2-yl)-4-(pyridin-3-yloxy)picolinamide], for which the IC50 at human mGluR5 amounted to 101 nM.

`Cc1cccc(NC(=O)c2cc(Oc3cncnc3)ccn2)n1` [N-(6-methylpyridin-2-yl)-4-(pyrimidin-5-yloxy)picolinamide]: on human mGluR5, the concentration for half-maximal inhibition (IC50) is 47 nM.

Source of the values: US8598345B2 (priority 2009, dated 2013).
